Results reported in patent US20160250185A1, “PHARMACEUTICAL COMPOSITION FOR C[…] MASS GAIN […]-PHENOTROPIL” (LATVIAN INSTITUTE OF ORGANIC SYNTHESIS, priority 2013, published 2016).
“Also recorded” adds a separate entry of the source. Marks after values point to notes of the source that are not given here.

What was measured:
mice = assay: Passive avoidance test, latent period of the remembering process; format: in vivo; conditions: for effect on latent period / passive avoidance: dose not given; for increase of latent period in comparison with control group: mice
Description: The influence of racemic, R- and S-phenotropil on memory processes was determined by means of a passive avoidance test (PCR), by registering the latent period of the remembering process.

[1] = Forced swimming test (duration of immobility), antidepressive effect; format: in vivo; conditions: for doses significantly reducing duration of immobility vs control group: 30 min after i.p. injection, doses tested 10, 50 and 100 mg/kg
Description: The antidepressive effect of the racemic, R- and S-phenotropil was tested in a forced swimming test (by determining the duration of immobility) 30 min after the i.p. injection of the compounds in doses 10, 50 and 100 mg/kg (FIG. 2).

[2] = Traction test, muscle strength and coordination; format: in vivo; conditions: i.p. 50, 100, 250 and 500 mg/kg, 30-180 min, probit analysis
Description: (§1) None of the compounds affected rectal temperature at the dose of 500 mg/kg (Table 1).
(§2) The compounds were administered in i.p. doses of 50, 100, 250 and 500 mg/kg. The effect of the substances in different tests was evaluated 30, 60, 120 and 180 min after the administration of the compounds. ED50 value was calculated by, performing probit analysis.

Rectal temperature = format: in vivo; conditions: i.p. 50, 100, 250 and 500 mg/kg, 30-180 min, probit analysis
Description: as §1, §2

[3] = Cylinder test, muscle strength and coordination; format: in vivo; conditions: for effect on muscle strength and coordination: cylinder, traction and rotating rod tests, up to 500 mg/kg
Description: as §1, §2

[4] = Rotating rod test, muscle strength and coordination; format: in vivo; conditions: i.p. 50, 100, 250 and 500 mg/kg, 30-180 min, probit analysis
Description: as §1, §2

[5] = Open field test, locomotor activity; format: in vivo; conditions: for time for which increase in locomotor activity was retained: single i.p., 50 mg/kg stated for R-phenotropil; for locomotor effect compared with R-phenotropil: respective doses, S-enantiomer at 50 mg/kg
Description: Locomotor activity was tested in an open field test 30, 60, 120, 180 and 240 min after a single i.p. injection of the racemic phenotropil and R- and S-enantiomers (FIG. 1A,B,C,D). […] R-phenotropil in 5, 10 and 50 mg/kg doses induced a statistically significant increase in locomotor activity in comparison with the control animals [F(3.31)=10.37, p<0.0001] (FIG. 1A,C). Furthermore, R-phenotropil in the dose of 50 mg/kg retained a statistically significant increase in locomotor activity for up to 240 min [F(9.80)=24.03, p<0.0001] (FIG. 1B,D).

Zucker fa/fa rats = assay: Body mass gain in Zucker fa/fa rats, 12 weeks oral administration; format: in vivo
Description: The influence of an S-phenotropil containing composition on the body mass. Zucker fa/fa (HsdOla:Zucker-Lepfre; Harlan Laboratories) and Zucker lean line rats (HsdOla:Zucker-Lean; Harlan Laboratories) with the body mass of 100-170 g were used during the experiment. At the beginning of the experiment the animals were 6 weeks old. Standard conditions for keeping the experimental animals were ensured (air temperature 21° C.-23° C., relative air humidity 65%±10%, 12 hour light/darkness cycle). Standardised feed (R70) by the company LABFOR (Lactamin AB, Sweden) was used to feed the animals, drinking water was accessible without limitations.
S-phenotropil containing pharmaceutical composition in water or water was orally administered to the mature male rats included into the experimental group once daily in the morning: To the Zucker lean group (n=10), water p.o., to the Zucker fa/fa control group (n=10), water p.o. or to the Zucker fa/fa group S-phenotropil containing composition 50 mg/kg (n=5), p.o. The resulting values were expressed as mean values±standard error of the mean (S.E.M.) T-test was used to check the validity of the results. The results were considered valid, if the p value was less than 0.05. […] Since the increase in mass for ZuckerLean control rats is primarily connected with normal increase in muscle mass, as the animals grow, the effect of S-phenotropil in terms of the increase of ZuckerFF fat mass is 39% (FIG. 6).

[6] = nootropic activity, literature (Malykh, Sadaie 2010); cited from earlier work
[7] = i.p. 50, 100, 250 and 500 mg/kg, 30-180 min, probit analysis
[8] = Zucker fa/fa rats, 50 mg/kg p.o. once daily, mean ± S.E.M.

Structure (SMILES) | effect on latent period in comparison with control group (mice; 1 mg/kg) | effect on latent period / passive avoidance (mice) | ED50 Traction [2] [mg/kg] | ED50 Rectal temperature (Rectal temperature) [mg/kg] | ED50 Cylinder [3, 7] [mg/kg] | ED50 Rotating rod [4] [mg/kg] | time for which increase in locomotor activity was retained [5] | doses significantly reducing duration of immobility vs control group [1] [mg/kg] | effect on muscle strength and coordination [3] | locomotor effect compared with R-phenotropil [5] | also measured
NC(=O)CN1C[C@@H](c2ccccc2)CC1=O [R-phenotropil] | significantly increased the latent period | considerably affects memory | 250 ± 40 | >500 | 258 ± 25 | 320 ± 60 | up to 240 min | – | – | – | increase of latent period in comparison with control group (mice; 1 mg/kg): 195%; increase of latent period in comparison with control group (mice; 10 mg/kg): 185%; reduction of duration of immobility in comparison with control group ([1]; 100 mg/kg i.p., 30 min): 8 times; antidepressive effect compared with the other tested compounds / control ([1]; i.p., 30 min after injection): significantly higher in comparison with racemic and S-phenotropil
NC(=O)CN1C[C@H](c2ccccc2)CC1=O [S-phenotropil, (S)-2-(2-oxo-4-phenylpyrrolidin-1-yl)acetamide] | – | does not have any effect in a passive avoidance test; also recorded: did not affect the latent period | – | – | – | – | – | 100 | did not affect muscle strength and coordination | statistically significantly weaker than the effect of R-enantiomer | effect on weight increase (Zucker fa/fa rats; Zucker FF rats, 12 weeks, 50 mg/kg p.o.): statistically significantly reduced the weight increase; Increase in fat mass in Week 12 (Zucker fa/fa rats; [8]): 106 ± 7 g; Weight increase in Week 12 (Zucker fa/fa rats; [8]): 2645 ± 30*^, # AUC units; reduction of total weight gain (Zucker fa/fa rats; Zucker fa/fa rats, 50 mg/kg p.o., 12 weeks): 22%; effect in terms of the increase of ZuckerFF fat mass (Zucker fa/fa rats; Zucker fa/fa rats, 50 mg/kg p.o., 12 weeks, relative to Zucker lean growth): 39%; ED50 ([2]; in vivo, intraperitoneal): > 500 mg/kg; ED50 (Rectal temperature; in vivo, intraperitoneal): > 500 mg/kg; ED50 ([3]; in vivo, intraperitoneal, i.p. 50, 100, 250 and 500 mg/kg, 30-180 min, probit analysis): > 500 mg/kg; ED50 ([4]; in vivo, intraperitoneal): > 500 mg/kg; dose for statistically significant effect on locomotor activity relative to R-phenotropil [5]: 10 times; doses inducing statistically significant increase in locomotor activity vs control animals ([5]; single i.p. injection): 50 mg/kg
NC(=O)CN1CC(c2ccccc2)CC1=O (racemic) [Phenotropil racemate] | significantly increased the latent period | – | >500 | >500 | >500 | >500 | up to 180 min | 100 | did not affect muscle strength and coordination | less active than R-phenotropil | activity relative to piracetam [6]: 30-60 times
